Converted amounts (≈) assume the structure as drawn.
What was measured:
[1] = Cytotoxicity against Swiss mouse BMDM assessed as reduction in cell viability after 24 hrs by MTS assay; format: cell-based; conditions: bone marrow-derived macrophages (BMDM)
[2] = system: Mycobacterium tuberculosis; assay: Antitubercular activity against Mycobacterium tuberculosis H37Ra ATCC 25177 after 4 weeks by Agar-based proportion Assay; format: functional; conditions: H37Ra ATCC 25177, 672 h
[3] = Selectivity index, ratio of CC50 for Swiss mouse BMDM to MIC for Mycobacterium tuberculosis H37Ra ATCC 25177

Compound	CC50 at 24 h [1] [µg/mL]	MIC [2] [µg/mL]	Selectivity Index [3]
FC(F)(F)c1ccc(-n2cc(COc3ccc(-c4ccccc4)cc3)nn2)cc1	100 (≈ 253 µM)	3.12 (≈ 7.89 µM)	32
N#Cc1ccc(-n2cc(COc3ccc(-c4ccccc4)cc3)nn2)cc1	–	> 25	–
NNC(=O)c1ccncc1 [ISONIAZID]	100 (≈ 729 µM)	0.025 (≈ 0.182 µM)	4000
c1ccc(CCn2cc(COc3ccc(-c4ccccc4)cc3)nn2)cc1	–	> 25	–
CC(=O)OCCn1cc(COc2ccc(-c3ccccc3)cc2)nn1	100 (≈ 296 µM)	1.56 (≈ 4.62 µM)	64.1
CC[C@@H](CO)NCCN[C@@H](CC)CO [ETHAMBUTOL]	100 (≈ 489 µM)	2 (≈ 9.79 µM)	50
Brc1ccc(-n2cc(COc3ccc(-c4ccccc4)cc3)nn2)cc1	–	> 25	–
Fc1ccccc1-n1cc(COc2ccc(-c3ccccc3)cc2)nn1	100 (≈ 290 µM)	0.78 (≈ 2.26 µM)	128
Clc1ccc(-n2cc(COc3ccc(-c4ccccc4)cc3)nn2)cc1	–	> 25	–
Fc1ccc(-n2cc(COc3ccc(-c4ccccc4)cc3)nn2)cc1	–	> 25	–
O=[N+]([O-])c1ccc(-n2cc(COc3ccc(-c4ccccc4)cc3)nn2)cc1	–	> 25	–
CCCCCCCCn1cc(COc2ccc(-c3ccccc3)cc2)nn1	–	> 25	–
COc1ccc(-n2cc(COc3ccc(-c4ccccc4)cc3)nn2)cc1	–	> 25	–
c1ccc(Cn2cc(COc3ccc(-c4ccccc4)cc3)nn2)cc1	–	> 25	–
Fc1ccc(-n2cc(COc3ccc(-c4ccccc4)cc3)nn2)cc1F	100 (≈ 275 µM)	3.12 (≈ 8.59 µM)	32
FC(F)Oc1ccc(-n2cc(COc3ccc(-c4ccccc4)cc3)nn2)cc1	100 (≈ 254 µM)	1.56 (≈ 3.97 µM)	–
Fc1ccc(-n2cc(COc3ccc(-c4ccccc4)cc3)nn2)cc1Cl	100 (≈ 263 µM)	1.56 (≈ 4.11 µM)	64.1
O=[N+]([O-])c1ccc(Cn2cc(COc3ccc(-c4ccccc4)cc3)nn2)cc1	–	> 25	–
c1ccc(-c2ccc(OCc3cn(-c4ccccc4)nn3)cc2)cc1	–	> 25	–
